According to patent US20110263662A1, “1,2-DIAMIDO-ETHYLENE DERIVATIVES AS OREXIN ANTAGONISTS” (priority 2007, published 2011):
pIC50: −log10 of the molar value.

Legend:
human orexin-2 receptor = molecular target: T1, human orexin-2 receptor (Homo sapiens, UniProt O43614); experiment: FLIPR intracellular calcium assay, orexin receptor antagonistic activity (OX2); assay type: cell-based; settings: CHO cells expressing human orexin-2 receptor; 3 nM orexin-A; measured with FLIPR Tetra (marked *)
T1 construct: expressed in transfected cells; host or cells: CHO (Chinese hamster ovary) cells, grown under G418 selection
T1 sequence (O43614 1-444): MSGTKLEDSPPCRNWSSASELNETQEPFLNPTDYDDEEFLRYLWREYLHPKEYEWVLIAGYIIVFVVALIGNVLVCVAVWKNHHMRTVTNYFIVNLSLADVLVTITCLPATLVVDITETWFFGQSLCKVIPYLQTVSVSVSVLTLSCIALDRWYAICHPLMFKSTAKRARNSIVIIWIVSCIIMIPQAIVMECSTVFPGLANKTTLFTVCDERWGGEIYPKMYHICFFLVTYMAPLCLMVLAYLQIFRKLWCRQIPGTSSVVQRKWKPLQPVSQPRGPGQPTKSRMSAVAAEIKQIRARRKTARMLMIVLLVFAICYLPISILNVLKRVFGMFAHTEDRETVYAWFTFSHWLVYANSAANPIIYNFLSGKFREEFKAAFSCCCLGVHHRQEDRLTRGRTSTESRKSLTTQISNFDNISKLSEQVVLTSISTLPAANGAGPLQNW
Protocol: (§1) Chinese hamster ovary (CHO) cells expressing the human orexin-1 receptor and the human orexin-2 receptor, respectively, are grown in culture medium (Ham F-12 with L-Glutamine) containing 300 μg/ml G418, 100 U/ml penicillin, 100 μg/ml streptomycin and 10% heat inactivated fetal calf serum (FCS). The cells are seeded at 20′000 cells/well into 384-well black clear bottom sterile plates (Greiner). The seeded plates are incubated overnight at 37° C. in 5% CO2.
(§2) Human orexin-A as an agonist is prepared as 1 mM stock solution in MeOH:water (1:1), diluted in HBSS containing 0.1% bovine serum albumin (BSA), NaHCO3:0.375 g/l and 20 mM HEPES for use in the assay at a final concentration of 3 nM.
(§3) Antagonists are prepared as 10 mM stock solution in DMSO, then diluted in 384-well plates, first in DMSO, then in HBSS containing 0.1% bovine serum albumin (BSA), NaHCO3: 0.375 g/l and 20 mM HEPES.
(§4) On the day of the assay, 50 μl of staining buffer (HBSS containing 1% FCS, 20 mM HEPES, NaHCO3: 0.375 g/l, 5 mM probenecid (Sigma) and 3 μM of the fluorescent calcium indicator fluo-4 AM (1 mM stock solution in DMSO, containing 10% pluronic) is added to each well.
(§5) The 384-well cell-plates are incubated for 50 min at 37° C. in 5% CO2 followed by equilibration at RT for 30-120 min before measurement.
(§6) Within the Fluorescent Imaging Plate Reader (FLIPR2 or FLIPR Tetra, Molecular Devices), antagonists are added to the plate in a volume of 10 μl/well, incubated for 10 min and finally 10 μl/well of agonist is added. Fluorescence is measured for each well at 1 second intervals, and the height of each fluorescence peak is compared to the height of the fluorescence peak induced by 3 nM orexin-A with vehicle in place of antagonist. For each antagonist, the IC50 value (the concentration of compound needed to inhibit 50% of the agonistic response) is determined. Optimized conditions may be achieved by adjustment of pipetting speed and cell splitting regime. The calculated IC50 values of the compounds may fluctuate depending on the daily cellular assay performance. Fluctuations of this kind are known to those skilled in the art.

human orexin-1 receptor = molecular target: T2, human orexin-1 receptor (Homo sapiens, UniProt O43613); experiment: FLIPR intracellular calcium assay, orexin receptor antagonistic activity (OX1); assay type: cell-based; settings: CHO cells expressing human orexin-1 receptor; 3 nM orexin-A; measured with FLIPR Tetra (marked *)
T2 construct: expressed in transfected cells; host or cells: CHO (Chinese hamster ovary) cells, grown under G418 selection
T2 sequence (O43613 1-425): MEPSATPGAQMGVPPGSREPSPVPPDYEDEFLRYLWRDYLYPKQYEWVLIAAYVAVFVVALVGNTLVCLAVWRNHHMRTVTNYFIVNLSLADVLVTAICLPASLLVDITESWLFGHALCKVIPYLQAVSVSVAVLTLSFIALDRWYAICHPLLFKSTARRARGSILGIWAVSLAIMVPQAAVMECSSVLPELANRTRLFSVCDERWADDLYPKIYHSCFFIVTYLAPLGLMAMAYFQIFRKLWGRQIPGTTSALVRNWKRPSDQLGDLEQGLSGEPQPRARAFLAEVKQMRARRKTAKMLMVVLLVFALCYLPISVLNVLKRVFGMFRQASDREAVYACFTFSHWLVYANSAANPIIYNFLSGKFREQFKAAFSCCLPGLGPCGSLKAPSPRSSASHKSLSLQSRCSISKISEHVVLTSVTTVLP
Protocol: as §1, §2, §3, §4, §5, §6

SMILES | pIC50 (human orexin-2 receptor) | pIC50 (human orexin-1 receptor)
Cc1nc(C(=O)N(CCNC(=O)c2c(C)nc3sccn23)CC2CC2)c(-c2cccc(C#N)c2)s1 [Example 187, 6-Methyl-imidazo[2,1-b]thiazole-5-carboxylic acid (2-{[5-(3-cyano-phenyl)-2-methyl-thiazole-4-carbonyl]-cyclopropylmethyl-amino}-ethyl)-amide] | 7.55 | 7.77
Cc1cccc(-c2sc(N)nc2C(=O)N(CCNC(=O)c2nn(C)c3ccccc23)CC2CC2)c1 [Example 195, 1-Methyl-1H-indazole-3-carboxylic acid {2-[(2-amino-5-m-tolyl-thiazole-4-carbonyl)-cyclopropylmethyl-amino]-ethyl}-amide] | 7.92 | 7.24
COc1cccc(-c2sc(C)nc2C(=O)N(CCNC(=O)c2cccc3c2OCCO3)CC2CC2)c1 [Example 248, 5-(3-Methoxy-phenyl)-2-methyl-thiazole-4-carboxylic acid cyclopropylmethyl-{2-[(2,3-dihydro-benzo[1,4]dioxine-5-carbonyl)-amino]-ethyl}-amide] | 7.54 | 6.36
Cc1cccc(-c2ccccc2C(=O)N(CCNC(=O)c2cccc3c2OCCO3)CC2CC2)c1 [Example 252, 2,3-Dihydro-benzo[1,4]dioxine-5-carboxylic acid {2-[cyclopropylmethyl-(3′-methyl-biphenyl-2-carbonyl)-amino]-ethyl}-amide] | 6.69 | 6.09
Nc1nc(C(=O)N(CCNC(=O)c2cccc3occc23)CC2CC2)c(-c2ccc(F)cc2)s1 [Example 261, 2-Amino-5-(4-fluoro-phenyl)-thiazole-4-carboxylic acid {2-[(benzofuran-4-carbonyl)-amino]-ethyl}-cyclopropylmethyl-amide] | 8.38 | 6.58
Nc1nc(C(=O)N(CCNC(=O)c2cccc3occc23)CC2CC2)c(-c2cccc(Cl)c2)s1 [Example 262, 2-Amino-5-(3-chloro-phenyl)-thiazole-4-carboxylic acid {2-[(benzofuran-4-carbonyl)-amino]-ethyl}-cyclopropylmethyl-amide] | 7.77 | 6.84
